Measured values taken from paper PMC9923736, “Optimized Ebselen-Based Inhibitors of Bacterial Ureases with Nontypical Mode of Action” (Journal of Medicinal Chemistry, 2023).

Key:
[1] = target: Sporosarcina pasteurii urease (Sporosarcina pasteurii, UniProt P41020); test: Inhibition of purified S. pasteurii urease (Ki; phenol-hypochlorite/Berthelot ammonia assay); format: biochemical; conditions: for mechanism of inhibition: S. pasteurii urease, Lineweaver-Burk plots / reaction progress curves
Description: The values of kinetic parameters ( and KM
vmax) of the purified enzyme were determined by fitting the initial reaction velocities measured in a range of urea concentrations to the Michaelis-Menten equation by nonlinear regression. The values […]
Enzymatic reactions were carried out in 3 mM phosphate buffer pH 7.5 at 37 °C. The kinetic parameters of urease in the noninhibited reaction ( and ) were obtained by measuring the Kmvmax […]
activity was defined as the amount of enzyme required to produce 1 µM ammonia per min under […]
S2.1. Inhibition studies.
S. pasteuriipM urease in assay mixtures (200 μL total volume) containing increasing concentrations […]
The values were calculated using the appropriate equations in Ki the GraphPad Prism 5 software. The inhibition mechanism was determined using Lineweaver-Burk plots after testing at least five inhibitor concentrations in the range depending on their inhibitory strength (exemplified in Figure S26).
S2.2. Inhibition studies. […]
and 52), ammonia concentration versus time, for urea hydrolysis catalyzed by S. pasteurii urease in the absence and presence of inhibitors were performed in standard assay mixtures at a single urea concentration (final concentration 25 mM) and at different inhibitor concentrations according to their inhibitory strength. Enzymatic hydrolysis of urea was initiated by adding […] of urease solution […]
min in samples taken from reaction mixtures at set time intervals. The reaction mixtures were stirred throughout the measurement period. The nonlinear reaction progress curves with time-dependent inhibitors of urease (for the nonincubated reaction and under conditions: [I]0 ≫ [E] 0) were described using the integrated equation: , (where is the concentration [P]=vt+(v+v)(1―e―kappt)1P […]
of the reaction product formed at time t, which is the reaction time, and are the reaction initial vivs and steady-state rates, respectively, and is the apparent first-order rate constant for the kapp interconversion between and ). […] The vivs […]
equilibrium dissociation constants of the initial and the final enzyme conformation complex EI EI ∗ […]
is the Michaelis-Menten constant, maximum rate of enzyme in a noninhibited reaction, vmax S and I are substrate and inhibitor concentration). The mechanism of inhibitor binding was determined using steady-state kinetic measurements (Figures S27 and S28). […]
pM) was pre-incubated with increasing inhibitor concentrations in separate aliquots of reaction buffer prior to the initiation of the reaction by urea incorporation at a concentration ranging from 1 to 60 mM. The incubation time was different for the assayed inhibitors, depending on when equilibrium was achieved between enzyme , inhibitor and enzyme-inhibitor complexes ( and : (E)(I)EI EI ∗ E + I ↔EI ↔ EI ∗ ) . The values were calculated using the appropriate equations implemented in Ki the GraphPad Prism 5 software. The inhibitors were dissolved in water or DMF (the solvent was […]
Urease activity was determined using the […]
run in triplicate for the compounds analyzed.

[2] = tested on: urease in living cells of P. mirabilis PCM 543; test: Inhibition of ureolysis in whole P. mirabilis cells in artificial urine model; conditions: Proteus mirabilis, read-out: IC90 (urine model)
[3] = tested on: urease in living cells of P. mirabilis PCM 543; test: Inhibition of ureolysis in whole P. mirabilis cells in PBS buffer (nongrowth conditions); conditions: Proteus mirabilis, read-out: IC50 (PBS buffer)
histone deacetylases = target: histone deacetylases; parameters: method as in PMID 22047054; conditions: cited from earlier work
[4] = target: methionine aminopeptidase 2; conditions: cited from earlier work
glutamate dehydrogenase = conditions: cited from earlier work
antigen 85 complex = antigen 85 complex of Mycobacterium tuberculosis; cited from earlier work
[5] = target: bacterial thioredoxin reductase, Bacillus anthracis; conditions: cited from earlier work

Sporosarcina pasteurii urease, sequence (P41020 whole entry, looked up): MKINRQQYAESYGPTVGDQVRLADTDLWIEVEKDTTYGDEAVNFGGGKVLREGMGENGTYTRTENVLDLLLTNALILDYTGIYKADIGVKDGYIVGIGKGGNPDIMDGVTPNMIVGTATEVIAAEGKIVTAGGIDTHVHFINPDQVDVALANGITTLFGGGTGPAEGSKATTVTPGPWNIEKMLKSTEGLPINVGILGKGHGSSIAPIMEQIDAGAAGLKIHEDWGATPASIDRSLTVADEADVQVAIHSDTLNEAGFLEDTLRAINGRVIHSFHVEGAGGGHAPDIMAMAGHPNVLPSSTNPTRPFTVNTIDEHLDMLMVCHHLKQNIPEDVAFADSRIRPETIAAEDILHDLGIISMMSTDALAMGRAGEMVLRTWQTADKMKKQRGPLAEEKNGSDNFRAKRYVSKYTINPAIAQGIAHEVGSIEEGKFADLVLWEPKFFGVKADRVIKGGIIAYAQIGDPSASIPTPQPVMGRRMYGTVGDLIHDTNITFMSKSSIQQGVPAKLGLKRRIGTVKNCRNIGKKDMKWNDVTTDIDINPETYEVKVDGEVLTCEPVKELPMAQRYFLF

## COc1cccc(-n2[se]c3ccccc3c2=O)c1 [compound 37, 2-(3-Methoxyphenyl)-1,2-benzisoselenazol-3(2H)-one]
[1]
  Ki: 1.07 ± 0.08 nM
  mechanism of inhibition: Slow binding inhibition
[2]
  IC90: 53.8 ± 3.7 nM
[3]
  IC50: 11.5 ± 1.3 nM

## O=c1c2ccccc2[se]n1-c1ccccc1Cl [compound 32, 2-(2-Chlorophenyl)-1,2-benzisoselenazol-3(2H)-one]
[1]
  Ki: 13.7 ± 0.96 nM
[2]
  IC90: 87.7 ± 8.3 nM
[3]
  IC50: 13.6 ± 1.5 nM

## COc1ccc(-n2[se]c3ccccc3c2=O)cc1 [compound 41, 2-(4-Methoxyphenyl)-1,2-benzisoselenazol-3(2H)-one]
[1]
  Ki: 44 ± 4.2 nM
[2]
  IC90: 180 ± 10 nM
[3]
  IC50: 15.9 ± 1.1 nM

## O=c1c2ccccc2[se]n1-c1ccc(C(F)(F)F)cc1 [compound 40, 2-(4-Trifluoromethylphenyl)-1,2-benzisoselenazol-3(2H)-one]
[1]
  Ki: 0.0363 ± 0.0039 nM
[2]
  IC90: 100 ± 14 nM
[3]
  IC50: 16 ± 1.3 nM

## O=c1c2ccccc2[se]n1-c1cccc(F)c1 [compound 36, 2-(3-Fluorophenyl)-1,2-benzisoselenazol-3(2H)-one]
[1]
  Ki: 1.89 ± 0.16 nM
[2]
  IC90: 223 ± 17 nM
[3]
  IC50: 8.86 ± 0.81 nM

## COc1ccc(Cl)cc1-n1[se]c2ccccc2c1=O [compound 53, 2-(5-Chloro-2-methoxyphenyl)-1,2-benzisoselenazol-3(2H)-one]
[1]
  Ki: 1.63 ± 0.12 nM
[2]
  IC90: 82.2 ± 11.3 nM
[3]
  IC50: 21.9 ± 1.7 nM

## O=c1c2ccccc2[se]n1-c1ccccc1F [compound 31, 2-(2-Fluorophenyl)-1,2-benzisoselenazol-3(2H)-one]
[1]
  Ki: 0.974 ± 0.089 nM
[2]
  IC90: 34.7 ± 2.7 nM
[3]
  IC50: 7.48 ± 0.67 nM

## O=c1c2ccccc2[se]n1-c1cc(Cl)ccc1F [compound 49, 2-(5-Chloro-2-fluorophenyl)-1,2-benzisoselenazol-3(2H)-one]
[1]
  Ki: 0.0135 ± 0.0014 nM
[2]
  IC90: 151 ± 20 nM
[3]
  IC50: 11.8 ± 1 nM

## O=c1c2ccccc2[se]n1-c1ccccc1Br [compound 33, 2-(2-Bromophenyl)-1,2-benzisoselenazol-3(2H)-one]
[1]
  Ki: 6.79 ± 0.53 nM
[2]
  IC90: 543 ± 26 nM
[3]
  IC50: 26.9 ± 2.8 nM

## Cc1ccc(-n2[se]c3ccccc3c2=O)cc1 [compound 38, 2-(4-Methylphenyl)-1,2-benzisoselenazol-3(2H)-one]
[1]
  Ki: 4.04 ± 0.32 nM

## COc1ccc(-n2[se]c3ccccc3c2=O)c(C)c1 [compound 43, 2-(4-Methoxy-2-methylphenyl)-1,2-benzisoselenazol-3(2H)-one]
[1]
  Ki: 7.3 ± 0.56 nM
  mechanism of inhibition: Slow binding inhibition
[2]
  IC90: 148 ± 10 nM
[3]
  IC50: 25.1 ± 2 nM

## O=c1c2ccccc2[se]n1-c1ccccc1 [compound 1, 2-phenyl-1,2-benzisoselenazol-3(2H)-one]
Histone deacetylases
  Ki: 80 to 4420 nM
[4]
  IC50: 2430 nM
Glutamate dehydrogenase
  IC50: 360 nM
Antigen 85 complex
  Ki: 63 nM
[5]
  IC50: 1000 nM
[3]
  IC50: 29.2 ± 3.1 nM

## Cc1ccc(-n2[se]c3ccccc3c2=O)c(Cl)c1 [compound 46, 2-(2-Chloro-4-methylphenyl)-1,2-benzisoselenazol-3(2H)-one]
[1]
  Ki: 3.26 ± 0.23 nM
[2]
  IC90: 176 ± 12 nM
[3]
  IC50: 20 ± 1.7 nM

## O=c1c2ccccc2[se]n1-c1ccccc1O [compound 34, 2-(2-Hydroxyphenyl)-1,2-benzisoselenazol-3(2H)-one]
[1]
  Ki: 1.42 ± 0.14 nM
[2]
  IC90: 148 ± 6 nM
[3]
  IC50: 16.8 ± 1.4 nM

## Cc1ccccc1-n1[se]c2ccccc2c1=O [compound 30, 2-(2-Methylphenyl)-1,2-benzisoselenazol-3(2H)-one]
[1]
  Ki: 3.56 ± 0.32 nM
[2]
  IC90: 121 ± 13 nM
[3]
  IC50: 25 ± 2 nM

## O=c1c2ccccc2[se]n1-c1ccc(F)cc1 [compound 39, 2-(4-Fluorophenyl)-1,2-benzisoselenazol-3(2H)-one]
[1]
  Ki: 24.1 ± 2.6 nM
[2]
  IC90: 145 ± 17 nM
[3]
  IC50: 12.1 ± 1.4 nM

## Cc1ccc(Cl)cc1-n1[se]c2ccccc2c1=O [compound 48, 2-(5-Chloro-2-methylphenyl)-1,2-benzisoselenazol-3(2H)-one]
[1]
  Ki: 75.2 ± 6.2 nM

## Cc1ccc(Cl)c(-n2[se]c3ccccc3c2=O)c1 [compound 50, 2-(2-Chloro-5-methylphenyl)-1,2-benzisoselenazol-3(2H)-one]
[1]
  Ki: 1.63 ± 0.13 nM
[2]
  IC90: 243 ± 17 nM
[3]
  IC50: 54 ± 2.7 nM

## CCCCOc1ccc(-n2[se]c3ccccc3c2=O)cc1 [compound 42, 2-(4-n-Butoxyphenyl)-1,2-benzisoselenazol-3(2H)-one]
[1]
  Ki: 1.78 ± 0.18 nM
  mechanism of inhibition: Slow binding inhibition
[2]
  IC90: 224 ± 15 nM
[3]
  IC50: 32.2 ± 3.8 nM

## COc1ccccc1-n1[se]c2ccccc2c1=O [compound 35, 2-(2-Methoxyphenyl)-1,2-benzisoselenazol-3(2H)-one]
[1]
  Ki: 5.36 ± 0.43 nM
[2]
  IC90: 18.8 ± 2.4 nM
[3]
  IC50: 4.19 ± 0.45 nM

## Cc1cc(-n2[se]c3ccccc3c2=O)ccc1Cl [compound 54, 2-(4-Chloro-3-methylphenyl)-1,2-benzisoselenazol-3(2H)-one]
[1]
  Ki: 2.45 ± 0.16 nM
[2]
  IC90: 124 ± 14 nM
[3]
  IC50: 23.8 ± 2 nM

## O=c1c2ccccc2[se]n1-c1cc(Cl)ccc1Cl [compound 51, 2-(2,5-Dichlorophenyl)-1,2-benzisoselenazol-3(2H)-one]
[1]
  Ki: 0.00885 nM
[2]
  IC90: 254 ± 14 nM
[3]
  IC50: 21.2 ± 1.5 nM

## O=c1c2ccccc2[se]n1-c1ccc(F)cc1Cl [compound 47, 2-(2-Chloro-4-fluorophenyl)-1,2-benzisoselenazol-3(2H)-one]
[1]
  Ki: 0.0058 ± 0.0004 nM
[2]
  IC90: 126 ± 8 nM
[3]
  IC50: 22.7 ± 2.5 nM

## O=c1c2ccccc2[se]n1-c1ccc(F)cc1F [compound 44, 2-(2,4-Difluorophenyl)-1,2-benzisoselenazol-3(2H)-one]
[1]
  Ki: 0.0167 ± 0.0017 nM
[2]
  IC90: 130 ± 16 nM
[3]
  IC50: 17 ± 1.8 nM

## COc1ccc(C)cc1-n1[se]c2ccccc2c1=O [compound 52, 2-(2-Methoxy-5-methylphenyl)-1,2-benzisoselenazol-3(2H)-one]
[1]
  Ki: 7.11 ± 0.56 nM
  mechanism of inhibition: Slow binding inhibition
[2]
  IC90: 96.6 ± 8.1 nM
[3]
  IC50: 11.8 ± 1.6 nM
